In the NIST ThermoML archive (doi:10.1021/je049579x):
Where “and” joins values, the source holds several entries; their conditions need not be identical. Identical values can stand only once.

Settings: Torsion effusion method

[I][Yb][I] [ytterbium(II) iodide]
Settings | vapor or sublimation pressure
968 K, Crystal | 1.9e-05 kPa
975 K, Crystal | 2.8e-05 kPa
976 K, Crystal | 2.8e-05 kPa
978 K, Crystal | 3.8e-05 kPa
982 K, Crystal | 3.8e-05 kPa
987 K, Crystal | 3.8e-05 kPa
989 K, Crystal | 3.8e-05 kPa and 4.8e-05 kPa and 5.6e-05 kPa
991 K, Crystal | 4.8e-05 kPa
996 K, Crystal | 5.6e-05 kPa and 6.6e-05 kPa
997 K, Crystal | 6.3e-05 kPa
998 K, Crystal | 5.6e-05 kPa
999 K, Crystal | 5.6e-05 kPa
1003 K, Crystal | 6.3e-05 kPa
1005 K, Crystal | 8.5e-05 kPa
1006 K, Crystal | 7.6e-05 kPa and 7.9e-05 kPa
1008 K, Crystal | 6.3e-05 kPa and 7.6e-05 kPa
1011 K, Crystal | 8.5e-05 kPa
1013 K, Crystal | 7.9e-05 kPa and 0.000115 kPa
1014 K, Crystal | 9.3e-05 kPa
1015 K, Crystal | 9.5e-05 kPa
1017 K, Crystal | 9.5e-05 kPa
1019 K, Crystal | 9.3e-05 kPa
1020 K, Crystal | 0.000115 kPa
1021 K, Crystal | 0.000141 kPa
1022 K, Crystal | 0.000126 kPa
1023 K, Crystal | 0.00011 kPa
1025 K, Crystal | 0.000132 kPa
1026 K, Crystal | 0.000132 kPa
1029 K, Crystal | 0.000126 kPa
1030 K, Crystal | 0.000158 kPa and 0.000151 kPa and 0.000182 kPa
1034 K, Crystal | 0.00017 kPa
1035 K, Crystal | 0.000158 kPa and 0.00017 kPa and 0.000182 kPa
1038 K, Crystal | 0.000219 kPa
1039 K, Crystal | 0.000174 kPa and 0.000204 kPa
1040 K, Crystal | 0.000209 kPa
1043 K, Crystal | 0.000229 kPa [middle of 4 runs]
1046 K, Crystal | 0.000282 kPa
1049 K, Crystal | 0.000234 kPa and 0.000282 kPa
1068 K, Liquid | 0.000468 kPa
1073 K, Liquid | 0.000501 kPa
1078 K, Liquid | 0.000631 kPa
1082 K, Liquid | 0.000631 kPa
1087 K, Liquid | 0.000759 kPa
1092 K, Liquid | 0.000813 kPa
1098 K, Liquid | 0.001 kPa
1101 K, Liquid | 0.001 kPa
1103 K, Liquid | 0.001202 kPa
1108 K, Liquid | 0.00138 kPa
1111 K, Liquid | 0.001259 kPa
1112 K, Liquid | 0.001445 kPa
1117 K, Liquid | 0.001698 kPa
1119 K, Liquid | 0.001585 kPa
1122 K, Liquid | 0.001862 kPa
1127 K, Liquid | 0.002138 kPa
1128 K, Liquid | 0.001995 kPa
1132 K, Liquid | 0.002239 kPa
1137 K, Liquid | 0.002754 kPa
1138 K, Liquid | 0.002512 kPa
1143 K, Liquid | 0.002951 kPa
1148 K, Liquid | 0.003388 kPa and 0.00309 kPa
1152 K, Liquid | 0.003548 kPa
1158 K, Liquid | 0.004365 kPa and 0.003981 kPa
1162 K, Liquid | 0.004786 kPa
1168 K, Liquid | 0.005754 kPa and 0.005129 kPa
1173 K, Liquid | 0.006026 kPa
1179 K, Liquid | 0.006918 kPa and 0.006761 kPa
1183 K, Liquid | 0.007586 kPa
1189 K, Liquid | 0.00871 kPa
1192 K, Liquid | 0.008913 kPa
